Our source for the pest or weed control values is patent US9700047B2, “Macrocyclic picolinamides as fungicides” (Dow AgroSciences LLC, priority 2014, dated 2017).

In this test the test system is Puccinia triticina; Synonym: Puccinia recondita f sp. tritici. Kind of test: Wheat brown rust (PUCCRT) disease control on wheat seedlings. It is filed as in vivo. Conditions: for pest or weed control at 100 ppm: High Volume activity at 100 ppm; for pest or weed control at 121.5 g/ha: Low Volume activity at 121.5 g/H. Here is the method: All fungicides were evaluated using the aforementioned method for their activity vs. all target diseases, unless stated otherwise. Wheat leaf blotch and brown rust activity were also evaluated using track spray applications, in which case the fungicides were formulated as EC formulations, containing 0.1% Trycol 5941 in the spray solutions. Wheat plants (variety Yuma) were grown from seed in a greenhouse in 50% mineral soil/50% soil-less Metro mix until the first leaf was fully emerged, with 7-10 seedlings per pot. These plants were inoculated with an aqueous spore suspension of Puccinia triticina either prior to or after fungicide treatments. […] The plants were then transferred to a greenhouse set at 24° C. for disease to develop. Fungicide formulation, application and disease assessment followed the procedures as described in the Example A.

[1] abbreviates: 24 h, 1 Day Protectant, read-out: PUCCRT 1DP % Control rating.
Setting [2] is: 72 h, 3 Day Curative, read-out: PUCCRT 3DC % Control rating.

Molecules are shown by their SMILES. Like-named read-outs stand apart in the source and are kept apart here.

For `COc1ccnc(C(=O)N[C@H]2CCC[C@H](Cc3ccc(C(F)(F)F)cc3)[C@@H](Cc3ccc(F)cc3)[C@H](C)OC2=O)c1O` [Compound 86], the pest or weed control at 100 ppm under setting [1] is > 70% and the pest or weed control at 100 ppm under setting [2] was < 70%.
For the compound `COc1ccnc(C(=O)N[C@H]2CCC[C@H](CCC(C)C)[C@@H](C3CCCC3)[C@H](C)OC2=O)c1OCOC(C)=O` [Compound 42], the pest or weed control at 121.5 g/ha under setting [1] is > 70% and the pest or weed control at 121.5 g/ha under setting [2] is < 70%.
On to `COc1ccnc(C(=O)N[C@H]2CCC[C@H](Cc3ccc(Cl)cc3)[C@@H](CC(C)C)[C@H](C)OC2=O)c1O` [Compound 76], for which the pest or weed control at 100 ppm is, setting by setting: under setting [1], > 70%; under setting [2], < 70%.
With `COc1ccnc(C(=O)N[C@H]2CCC[C@H](Cc3ccc(Cl)cc3)[C@@H](CC(C)C)[C@H](C)OC2=O)c1OC(C)=O` [Compound 13], the pest or weed control at 121.5 g/ha under setting [1] was > 70% and the pest or weed control at 121.5 g/ha under setting [2] was < 70%.
The matching figures for `COc1ccnc(C(=O)N[C@H]2CCC[C@H](Cc3ccccc3)[C@@H](CCC(C)C)[C@H](C)OC2=O)c1OCOC(=O)C(C)C` [Compound 50]: > 70% and < 70%.
Turning to `CCOCC(=O)OCOc1c(OC)ccnc1C(=O)N[C@H]1CCC[C@H](CCC(C)C)[C@@H](CCc2ccccc2)[C@H](C)OC1=O` [Compound 35], the pest or weed control at 121.5 g/ha runs as follows: under setting [1], > 70%; under setting [2], < 70%.
On to `COc1ccnc(C(=O)N[C@H]2CCC[C@H](Cc3ccc(C(F)(F)F)cc3)[C@@H](CC(C)C)[C@H](C)OC2=O)c1OCOC(=O)C(C)C` [Compound 24], for which the pest or weed control at 121.5 g/ha is < 70% under setting [1] and < 70% under setting [2].
With `COc1ccnc(C(=O)N[C@H]2CCC[C@H](Cc3ccccc3)[C@@H](Cc3ccc(F)cc3)[C@H](C)OC2=O)c1O` [Compound 95], the pest or weed control at 121.5 g/ha under setting [1] was > 70% and the pest or weed control at 121.5 g/ha under setting [2] is < 70%.
Turning to `COc1ccnc(C(=O)N[C@H]2CCC[C@H](CCCc3ccccc3)[C@@H](CCc3ccccc3)[C@H](C)OC2=O)c1OCOC(C)=O` [Compound 32], the pest or weed control at 121.5 g/ha under setting [1] was > 70% and the pest or weed control at 121.5 g/ha under setting [2] is < 70%.
In the case of `CCOCC(=O)OCOc1c(OC)ccnc1C(=O)N[C@H]1CCC[C@H](Cc2ccccc2)[C@@H](CCc2ccccc2)[C@H](C)OC1=O` [Compound 16], the pest or weed control at 121.5 g/ha by setting is: under setting [1], > 70%; under setting [2], > 70%.
With `COc1ccnc(C(=O)N[C@H]2CCC[C@H](Cc3ccc(Cl)cc3)[C@@H](C3CCCC3)[C@H](C)OC2=O)c1OC(C)=O` [Compound 28], the pest or weed control at 121.5 g/ha runs as follows: under setting [1], > 70%; under setting [2], < 70%.
Regarding `CCC[C@H]1CCC[C@H](NC(=O)c2nccc(OC)c2O)C(=O)O[C@@H](C)[C@@H]1Cc1ccccc1` [Compound 82], the pest or weed control at 100 ppm reads like this: under setting [1], > 70%; under setting [2], > 70%.
For the compound `COc1ccnc(C(=O)N[C@H]2CCC[C@H](Cc3ccc(C(F)(F)F)cc3)[C@@H](Cc3ccc(OC(F)(F)F)cc3)[C@H](C)OC2=O)c1OCOC(C)=O` [Compound 65], the pest or weed control at 121.5 g/ha by setting is: under setting [1], < 70%; under setting [2], < 70%.
For `COc1ccnc(C(=O)N[C@H]2CCC[C@H](CCCc3ccccc3)[C@@H](Cc3ccc(OC(F)(F)F)cc3)[C@H](C)OC2=O)c1OC(C)=O` [Compound 57], the pest or weed control at 121.5 g/ha under setting [1] is < 70% and the pest or weed control at 121.5 g/ha under setting [2] was < 70%.
For the compound `COc1ccnc(C(=O)N[C@H]2CCC[C@H](CCCc3ccccc3)[C@@H](Cc3ccc(OC(F)(F)F)cc3)[C@H](C)OC2=O)c1O` [Compound 93], the pest or weed control at 100 ppm is < 70% under setting [1] and < 70% under setting [2].
As for `COc1ccnc(C(=O)N[C@H]2CCC[C@H](Cc3ccccc3)[C@@H](CCc3ccccc3)[C@H](C)OC2=O)c1OCOC(C)=O` [Compound 15], the pest or weed control at 121.5 g/ha under setting [1] was > 70% and the pest or weed control at 121.5 g/ha under setting [2] was < 70%.
On the same counts, the results for `COc1ccnc(C(=O)N[C@H]2CCC[C@H](Cc3ccccc3)[C@@H](C3CCCC3)[C@H](C)OC2=O)c1OCOC(C)=O` [Compound 10] are > 70% and > 70%.
On the same counts, the results for `CCOCC(=O)OCOc1c(OC)ccnc1C(=O)N[C@H]1CCC[C@H](Cc2ccc(Cl)cc2)[C@@H](C2CCCC2)[C@H](C)OC1=O` [Compound 31] are > 70% and < 70%.
Take `CCC[C@H]1CCC[C@H](NC(=O)c2nccc(OC)c2OC(C)=O)C(=O)O[C@@H](C)[C@@H]1Cc1ccccc1` [Compound 38]: the pest or weed control at 121.5 g/ha under setting [1] was > 70% and the pest or weed control at 121.5 g/ha under setting [2] is > 70%.
Turning to `CCC[C@H]1CCC[C@H](NC(=O)c2nccc(OC)c2OC(C)=O)C(=O)O[C@@H](C)[C@@H]1c1ccccc1` [Compound 55], the pest or weed control at 121.5 g/ha by setting is: under setting [1], > 70%; under setting [2], > 70%.
As for `COc1ccnc(C(=O)N[C@H]2CCC[C@H](CCCc3ccccc3)[C@@H](CC(C)C)[C@H](C)OC2=O)c1O` [Compound 92], the pest or weed control at 100 ppm was > 70% under setting [1] and < 70% under setting [2].
On to `COc1ccnc(C(=O)N[C@H]2CCC[C@H](Cc3ccc(C(F)(F)F)cc3)[C@@H](Cc3ccc(F)cc3)[C@H](C)OC2=O)c1OCOC(=O)C(C)C` [Compound 41], for which the pest or weed control at 121.5 g/ha runs as follows: under setting [1], < 70%; under setting [2], < 70%.
On to `CCC[C@H]1CCC[C@H](NC(=O)c2nccc(OC)c2OC(C)=O)C(=O)O[C@@H](C)[C@@H]1Cc1ccc(F)cc1` [Compound 46], for which the pest or weed control at 121.5 g/ha by setting is: under setting [1], > 70%; under setting [2], > 70%.
As to `COc1ccnc(C(=O)N[C@H]2CCC[C@H](Cc3ccccc3)[C@@H](Cc3ccccc3)[C@H](C)OC2=O)c1O` [Compound 74], the pest or weed control at 100 ppm reads like this: under setting [1], > 70%; under setting [2], > 70%.
`COc1ccnc(C(=O)N[C@H]2CCC[C@H](CCC(C)C)[C@@H](CCc3ccccc3)[C@H](C)OC2=O)c1OC(C)=O` [Compound 36]: the pest or weed control at 121.5 g/ha runs as follows: under setting [1], > 70%; under setting [2], < 70%.
As for `COc1ccnc(C(=O)N[C@H]2CCC[C@H](CCCc3ccccc3)[C@@H](Cc3ccc(OC(F)(F)F)cc3)[C@H](C)OC2=O)c1OCOC(C)=O` [Compound 59], the pest or weed control at 121.5 g/ha runs as follows: under setting [1], > 70%; under setting [2], < 70%.
For `COc1ccnc(C(=O)N[C@H]2CCC[C@H](Cc3ccc(C(F)(F)F)cc3)[C@@H](CC(C)C)[C@H](C)OC2=O)c1OCOC(C)=O` [Compound 23], the pest or weed control at 121.5 g/ha is, setting by setting: under setting [1], > 70%; under setting [2], < 70%.
On the same counts, the results for `COc1ccnc(C(=O)N[C@H]2CCC[C@H](Cc3ccc(C(F)(F)F)cc3)[C@@H](Cc3ccccc3)[C@H](C)OC2=O)c1OCOC(C)=O` [Compound 26] are > 70% and < 70%.
`COc1ccnc(C(=O)N[C@H]2CCC[C@H](Cc3ccccc3)[C@@H](CCC(C)C)[C@H](C)OC2=O)c1O` [Compound 88]: the pest or weed control at 100 ppm under setting [1] was > 70% and the pest or weed control at 100 ppm under setting [2] is < 70%.
`COc1ccnc(C(=O)N[C@H]2CCC[C@H](Cc3ccccc3)[C@@H](Cc3ccccc3)[C@H](C)OC2=O)c1OCOC(C)=O` [Compound 6]: the pest or weed control at 121.5 g/ha is > 70% under setting [1] and > 70% under setting [2].
For the compound `CCCC[C@@H]1[C@@H](Cc2ccccc2)CCC[C@H](NC(=O)c2nccc(OC)c2OC(C)=O)C(=O)O[C@H]1C` [Compound 1, 2-(((3S,7R,8R,9S)-7-benzyl-8-butyl-9-methyl-2-oxooxonan-3-yl)carbamoyl)-4-methoxypyridin-3-yl acetate], the pest or weed control at 100 ppm by setting is: under setting [1], > 70%; under setting [2], > 70%. In addition, the pest or weed control at 121.5 g/ha is > 70% under setting [1] and < 70% under setting [2].
For `COc1ccnc(C(=O)N[C@H]2CCC[C@H](Cc3ccccc3)[C@@H](CCC(C)C)[C@H](C)OC2=O)c1OC(=O)C(C)C` [Compound 49], the pest or weed control at 121.5 g/ha under setting [1] is < 70% and the pest or weed control at 121.5 g/ha under setting [2] is < 70%.
`COc1ccnc(C(=O)N[C@H]2CCC[C@H](Cc3ccc(C(F)(F)F)cc3)[C@@H](Cc3ccc(F)cc3)[C@H](C)OC2=O)c1OC(C)=O` [Compound 40]: the pest or weed control at 121.5 g/ha is, setting by setting: under setting [1], < 70%; under setting [2], < 70%.
Turning to `CCCC[C@@H]1[C@@H](Cc2ccccc2)CCC[C@H](NC(=O)c2nccc(OC)c2OCOC(C)=O)C(=O)O[C@H]1C` [Compound 2, ((2-(((3S,7R,8R,9S)-7-benzyl-8-butyl-9-methyl-2-oxooxonan-3-yl)carbamoyl)-4-methoxypyridin-3-yl)oxy)methyl acetate], under setting [1], the pest or weed control at 100 ppm is > 70% and the pest or weed control at 121.5 g/ha is > 70%. Further, under setting [2], the pest or weed control at 100 ppm is > 70% and the pest or weed control at 121.5 g/ha was < 70%.
Regarding `COc1ccnc(C(=O)N[C@H]2CCC[C@H](CCCc3ccccc3)[C@@H](CCc3ccccc3)[C@H](C)OC2=O)c1OC(C)=O` [Compound 33], the pest or weed control at 121.5 g/ha reads like this: under setting [1], < 70%; under setting [2], < 70%.
With `COc1ccnc(C(=O)N[C@H]2CCC[C@H](Cc3ccccc3)[C@@H](Cc3ccc(F)cc3)[C@H](C)OC2=O)c1OCOC(C)=O` [Compound 63], the pest or weed control at 121.5 g/ha is > 70% under setting [1] and < 70% under setting [2].
